Reference: ChEMBL document CHEMBL6109089, “Design, synthesis and optimization of Apcin analogues as Cdc20 inhibitors for triple-negative breast cancer therapy” (Eur J Med Chem, 2025)

How the values were obtained:
HeLa [1] = test: Antiproliferative activity against human HeLa cells measured after 48 hrs by CCK-8 method
MDA-MB-231 [2] = test: Induction of cell cycle arrest in human MDA-MB-231 cells assessed as increase in accumulation of cells at G2/M phase at 300 uM measured after 24 hrs by PI staining based flow cytometry analysis (reference value: 26.38%); type: functional
HeLa [3] = test: cells; conditions: Homo sapiens, 48 h
Description: Antiproliferative activity against human HeLa cells assessed as inhibition of cell growth measured after 48 hrs by CCK-8 method

MDA-MB-231 [4] = test: Induction of apoptosis in human MDA-MB-231 cells assessed as early apoptotic cells at 300 uM incubated for 24 hrs by Annexin V-FITC/PI staining based flow cytometry analysis (reference value: 5.40%); type: functional
[5] = Selectivity index, ratio of IC50 for antiproliferative activity against human MCF7 cells to IC50 for antiproliferative activity against human MDA-MB-231 cells; type: cell-based
[6] = Antiproliferative activity against rat H9c2 cells assessed as inhibition of cell growth measured after 48 hrs by CCK-8 method; type: toxicity, cell-based
MDA-MB-231 [7] = test: Antitumor activity against human MDA-MB-231 cells xenografted in BALB/c nude mouse model assessed as reduction in tumor growth at 30 mg/kg, ip administered daily for 18 days by vernier caliper method relative to control; type: functional; set-up: scale not given: the % may be the effect or the level left; conditions: time 18 day
[8] = Selectivity index, ratio of IC50 for antiproliferative activity against human MCF-10A cells to IC50 for antiproliferative activity against human MDA-MB-231 cells; type: toxicity, cell-based; conditions: MCF-10A cells and MDA-MB-231 cells, read-out: Ratio IC50
SiHa = test: cells; conditions: Homo sapiens, 48 h
Description: Antiproliferative activity against human SiHa cells assessed as inhibition of cell growth measured after 48 hrs by CCK-8 method

[9] = molecular target: Cell division cycle protein 20 homolog (Homo sapiens, UniProt Q12834); test: Binding affinity to Cdc20 (unknown origin) assessed as dissociation constant measured after 360 secs by surface plasmon resonance assay
Sequence of Cell division cycle protein 20 homolog (Q12834 whole entry): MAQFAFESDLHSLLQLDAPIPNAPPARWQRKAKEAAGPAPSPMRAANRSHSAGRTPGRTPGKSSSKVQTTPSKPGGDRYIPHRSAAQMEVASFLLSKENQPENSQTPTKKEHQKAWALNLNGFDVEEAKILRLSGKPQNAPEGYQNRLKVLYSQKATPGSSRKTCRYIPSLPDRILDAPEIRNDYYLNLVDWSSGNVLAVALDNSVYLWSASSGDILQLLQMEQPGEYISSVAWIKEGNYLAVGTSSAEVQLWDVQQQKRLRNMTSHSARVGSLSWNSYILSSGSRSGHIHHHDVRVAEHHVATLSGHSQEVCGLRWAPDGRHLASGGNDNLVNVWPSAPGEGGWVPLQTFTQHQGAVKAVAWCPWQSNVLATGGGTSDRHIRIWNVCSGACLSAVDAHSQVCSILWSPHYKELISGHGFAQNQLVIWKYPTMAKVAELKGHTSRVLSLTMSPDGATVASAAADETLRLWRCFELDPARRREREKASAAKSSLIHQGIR

MDA-MB-231 [10] = test: Induction of apoptosis in human MDA-MB-231 cells assessed as late apoptotic cells at 300 uM incubated for 24 hrs by Annexin V-FITC/PI staining based flow cytometry analysis (reference value: 0.46%); type: functional
[11] = Antiproliferative activity against human HK-2 cells assessed as inhibition of cell growth measured after 48 hrs by CCK-8 method; type: toxicity, cell-based
MDA-MB-231 [12] = test: cells; conditions: Homo sapiens, MDA-MB-231, 48 h
Description: Antiproliferative activity against human MDA-MB-231 cells assessed as inhibition of cell growth measured after 48 hrs by CCK-8 method

[13] = Antiproliferative activity against human MCF-10A cells assessed as inhibition of cell growth measured after 48 hrs by CCK-8 method; type: toxicity, cell-based
MDA-MB-231 [14] = test: Induction of apoptosis in human MDA-MB-231 cells assessed as viable cells at 300 uM incubated for 24 hrs by Annexin V-FITC/PI staining based flow cytometry analysis (reference value: 94.1%); type: functional; conditions: read-out: Activity
MDA-MB-231 [15] = test: Induction of apoptosis in human MDA-MB-231 cells assessed as necrotic cells at 300 uM incubated for 24 hrs by Annexin V-FITC/PI staining based flow cytometry analysis (reference value: 0.033%); type: functional
MCF7 = test: cells; conditions: Homo sapiens, MCF7, 48 h
Description: Antiproliferative activity against human MCF7 cells assessed as inhibition of cell growth measured after 48 hrs by CCK-8 method

MDA-MB-436 = test: cells; conditions: Homo sapiens, MDA-MB-436, 48 h
Description: Antiproliferative activity against human MDA-MB-436 cells assessed as inhibition of cell growth measured after 48 hrs by CCK-8 method

IC50 (HeLa [1]) | IC50 (HeLa [3]) | IC50 (SiHa) | Kd [9] | IC50 (MDA-MB-231 [12]) | IC50 (MCF7) | IC50 (MDA-MB-436) | Compound | Activity (MDA-MB-231 [2]) | Activity (MDA-MB-231 [4]) | Ratio IC50 [5] | IC50 at 48 h [6] | Activity (MDA-MB-231 [7]) | selectivity ratio [8] | Activity (MDA-MB-231 [10]) | IC50 at 48 h [11] | IC50 at 48 h [13] | viability at 300 µM (MDA-MB-231 [14]) | Activity (MDA-MB-231 [15])
0.06 µM | – | – | – | – | – | – | Nc1nc(F)nc2c1ncn2C(NC(=O)NCCN1CCOCC1)C(Cl)(Cl)Cl (stereo unspecified) | – | – | – | – | – | – | – | – | – | – | –
– | 198 µM | 203 µM | 236 µM | 192 µM | 292 µM | 176 µM | Cc1ncc([N+](=O)[O-])n1CCOC(=O)NC(Nc1ncccn1)C(Cl)(Cl)Cl (stereo unspecified) | 38.8% | 38.6% | 1.53 | 252 µM | 53% | 0.84 | 0.95% | 151 µM | 161 µM | 59.7% | 0.7%
– | > 100 µM | 89.4 µM | – | > 100 µM | – | – | COc1cc(N)nc(NC(NC(=O)OCCn2c([N+](=O)[O-])cnc2C)C(Cl)(Cl)Cl)n1 (stereo unspecified) | – | – | – | – | – | – | – | – | – | – | –
